Test results taken from patent US10844077B2, “Thiazolyl-containing compounds for treating proliferative diseases” (Dana-Farber Cancer Institute, Inc., priority 2014, dated 2020).
“And” between values parts separate entries of the source, which are not always exact repeats. Equal values may be shown once.

tested on: PI4KA, PI4KAP2; experiment: KINATIV assay; assay type: cell-based; conditions: 1 μM, 90 minutes, BCWM.1 cells
Method in brief: (§1)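 Duplicate compound samples were compared with duplicate or quadruplicate controls. After harvesting and lysis, cells' lysates were probe-labeled (ATP-biotin), and kinase labeling was quantitated by ACTIVX.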

| SMILES | % change of MS signal compared to control sample |
| --- | --- |
| C=CC(=O)N1CCCCC(Nc2nccc(Nc3ncc(C(=O)Nc4c(C)cccc4C)s3)n2)C1 (stereo not drawn) [Example I-7] | −17.4% |

biological target: CK1g2 (Homo sapiens (Human), UniProt P78368); experiment: KINATIV assay; assay type: cell-based; conditions: 1 μM, 90 minutes, BCWM.1 cells
Method in brief: as §1

| SMILES | % change of MS signal compared to control sample |
| --- | --- |
| C=CC(=O)N1CCCCC(Nc2nccc(Nc3ncc(C(=O)Nc4c(C)cccc4C)s3)n2)C1 (stereo not drawn) [Example I-7] | −3.7% |

biological target: TEC (Homo sapiens (Human), UniProt P42680); experiment: KINATIV assay; assay type: cell-based; conditions: 1 μM, 90 minutes, BCWM.1 cells
Sequence (P42680 whole entry): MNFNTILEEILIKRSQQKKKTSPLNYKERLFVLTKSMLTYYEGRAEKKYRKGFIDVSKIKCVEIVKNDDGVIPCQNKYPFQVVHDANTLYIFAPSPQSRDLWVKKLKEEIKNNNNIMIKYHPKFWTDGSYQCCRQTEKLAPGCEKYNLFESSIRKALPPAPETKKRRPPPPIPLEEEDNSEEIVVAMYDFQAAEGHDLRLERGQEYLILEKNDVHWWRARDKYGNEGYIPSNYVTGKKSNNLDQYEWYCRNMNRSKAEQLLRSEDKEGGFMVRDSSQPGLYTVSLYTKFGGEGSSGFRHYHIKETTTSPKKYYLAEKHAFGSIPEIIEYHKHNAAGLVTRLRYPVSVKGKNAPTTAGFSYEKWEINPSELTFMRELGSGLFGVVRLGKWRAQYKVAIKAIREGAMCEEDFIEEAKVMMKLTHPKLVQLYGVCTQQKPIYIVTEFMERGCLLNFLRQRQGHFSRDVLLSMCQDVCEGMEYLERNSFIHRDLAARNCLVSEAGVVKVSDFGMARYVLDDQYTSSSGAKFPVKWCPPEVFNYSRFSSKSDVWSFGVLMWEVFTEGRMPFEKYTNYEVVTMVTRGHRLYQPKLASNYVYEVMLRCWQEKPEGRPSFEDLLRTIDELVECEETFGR
Method in brief: as §1

| SMILES | % change of MS signal compared to control sample |
| --- | --- |
| C=CC(=O)N1CCCCC(Nc2nccc(Nc3ncc(C(=O)Nc4c(C)cccc4C)s3)n2)C1 (stereo not drawn) [Example I-7] | 85.1% and 58.6% |

biological target: RSK3 (Homo sapiens (Human), UniProt Q15349); experiment: KINATIV assay; assay type: cell-based; conditions: 1 μM, 90 minutes, BCWM.1 cells
Method in brief: as §1

| SMILES | % change of MS signal compared to control sample |
| --- | --- |
| C=CC(=O)N1CCCCC(Nc2nccc(Nc3ncc(C(=O)Nc4c(C)cccc4C)s3)n2)C1 (stereo not drawn) [Example I-7] | 12.6% |

biological target: YSK1 (Homo sapiens (Human), UniProt O00506); experiment: KINATIV assay; assay type: cell-based; conditions: 1 μM, 90 minutes, BCWM.1 cells
Method in brief: as §1

| SMILES | % change of MS signal compared to control sample |
| --- | --- |
| C=CC(=O)N1CCCCC(Nc2nccc(Nc3ncc(C(=O)Nc4c(C)cccc4C)s3)n2)C1 (stereo not drawn) [Example I-7] | −19.9% |

biological target: MSK1 domain1 (Homo sapiens (Human), UniProt O75582); experiment: KINATIV assay; assay type: cell-based; conditions: 1 μM, 90 minutes, BCWM.1 cells
Sequence (O75582 whole entry, the tested form may be a part): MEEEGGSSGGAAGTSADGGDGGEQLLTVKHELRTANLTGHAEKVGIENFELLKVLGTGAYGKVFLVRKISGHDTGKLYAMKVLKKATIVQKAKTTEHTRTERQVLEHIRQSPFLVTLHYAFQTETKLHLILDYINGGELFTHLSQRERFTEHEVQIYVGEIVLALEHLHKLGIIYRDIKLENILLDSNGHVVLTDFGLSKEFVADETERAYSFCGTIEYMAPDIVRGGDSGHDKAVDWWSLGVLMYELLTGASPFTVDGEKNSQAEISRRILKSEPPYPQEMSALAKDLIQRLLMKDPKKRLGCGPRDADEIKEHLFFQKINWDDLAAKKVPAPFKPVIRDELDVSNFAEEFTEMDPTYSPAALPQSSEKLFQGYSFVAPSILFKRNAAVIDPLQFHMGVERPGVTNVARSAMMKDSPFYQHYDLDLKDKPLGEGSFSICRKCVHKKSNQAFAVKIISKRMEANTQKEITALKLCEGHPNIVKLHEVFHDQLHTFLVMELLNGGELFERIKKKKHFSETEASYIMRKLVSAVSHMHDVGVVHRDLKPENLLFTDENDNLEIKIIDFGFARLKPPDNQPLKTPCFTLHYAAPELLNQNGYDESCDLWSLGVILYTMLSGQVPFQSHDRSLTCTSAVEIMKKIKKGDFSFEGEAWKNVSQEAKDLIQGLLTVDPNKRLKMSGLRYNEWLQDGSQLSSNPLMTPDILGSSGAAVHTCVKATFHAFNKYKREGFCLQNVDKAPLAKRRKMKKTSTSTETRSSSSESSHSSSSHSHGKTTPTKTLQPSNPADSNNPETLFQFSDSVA
Method in brief: as §1

| SMILES | % change of MS signal compared to control sample |
| --- | --- |
| C=CC(=O)N1CCCCC(Nc2nccc(Nc3ncc(C(=O)Nc4c(C)cccc4C)s3)n2)C1 (stereo not drawn) [Example I-7] | −40.5% |

biological target: PYK2 (Homo sapiens (Human), UniProt Q14289); experiment: KINATIV assay; assay type: cell-based; conditions: 1 μM, 90 minutes, BCWM.1 cells
Sequence (Q14289 whole entry): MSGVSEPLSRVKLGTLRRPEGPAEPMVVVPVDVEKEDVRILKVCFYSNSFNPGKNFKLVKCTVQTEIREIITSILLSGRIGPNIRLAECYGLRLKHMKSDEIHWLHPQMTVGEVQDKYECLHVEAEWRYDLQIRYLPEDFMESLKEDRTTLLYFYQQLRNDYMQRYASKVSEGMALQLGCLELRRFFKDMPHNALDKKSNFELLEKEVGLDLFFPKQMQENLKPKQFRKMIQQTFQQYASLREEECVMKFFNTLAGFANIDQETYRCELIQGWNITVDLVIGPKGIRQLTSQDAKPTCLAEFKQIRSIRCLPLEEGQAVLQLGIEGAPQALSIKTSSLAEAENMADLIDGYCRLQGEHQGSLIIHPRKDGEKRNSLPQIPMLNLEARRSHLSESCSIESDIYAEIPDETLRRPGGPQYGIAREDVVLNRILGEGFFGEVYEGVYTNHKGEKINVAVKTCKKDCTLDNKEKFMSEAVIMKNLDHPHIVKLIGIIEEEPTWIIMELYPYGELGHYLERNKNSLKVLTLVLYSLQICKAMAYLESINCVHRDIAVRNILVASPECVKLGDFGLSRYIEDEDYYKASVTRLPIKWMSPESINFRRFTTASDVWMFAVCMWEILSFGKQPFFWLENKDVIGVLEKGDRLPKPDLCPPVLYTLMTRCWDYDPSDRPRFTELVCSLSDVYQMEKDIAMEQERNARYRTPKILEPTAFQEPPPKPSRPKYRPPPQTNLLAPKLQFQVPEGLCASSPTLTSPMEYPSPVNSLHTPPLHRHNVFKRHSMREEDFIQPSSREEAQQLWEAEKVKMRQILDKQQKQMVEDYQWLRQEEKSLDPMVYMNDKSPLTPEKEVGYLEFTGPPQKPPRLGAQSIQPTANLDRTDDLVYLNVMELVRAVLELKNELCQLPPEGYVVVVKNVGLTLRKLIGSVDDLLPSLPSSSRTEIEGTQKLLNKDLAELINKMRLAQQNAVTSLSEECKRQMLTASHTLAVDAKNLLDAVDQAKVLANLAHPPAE
Method in brief: as §1

| SMILES | % change of MS signal compared to control sample |
| --- | --- |
| C=CC(=O)N1CCCCC(Nc2nccc(Nc3ncc(C(=O)Nc4c(C)cccc4C)s3)n2)C1 (stereo not drawn) [Example I-7] | 16.6% and 28.4% |

biological target: MAP3K5 (Homo sapiens (Human), UniProt Q99683); experiment: KINATIV assay; assay type: cell-based; conditions: 1 μM, 90 minutes, BCWM.1 cells
Method in brief: as §1

| SMILES | % change of MS signal compared to control sample |
| --- | --- |
| C=CC(=O)N1CCCCC(Nc2nccc(Nc3ncc(C(=O)Nc4c(C)cccc4C)s3)n2)C1 (stereo not drawn) [Example I-7] | −9.3% |

biological target: NEK7 (Homo sapiens (Human), UniProt Q8TDX7); experiment: KINATIV assay; assay type: cell-based; conditions: 1 μM, 90 minutes, BCWM.1 cells
Method in brief: as §1

| SMILES | % change of MS signal compared to control sample |
| --- | --- |
| C=CC(=O)N1CCCCC(Nc2nccc(Nc3ncc(C(=O)Nc4c(C)cccc4C)s3)n2)C1 (stereo not drawn) [Example I-7] | 10.0% |

biological target: PIK3C2B (Homo sapiens (Human), UniProt O00750); experiment: KINATIV assay; assay type: cell-based; conditions: 1 μM, 90 minutes, BCWM.1 cells
Sequence (O00750 whole entry): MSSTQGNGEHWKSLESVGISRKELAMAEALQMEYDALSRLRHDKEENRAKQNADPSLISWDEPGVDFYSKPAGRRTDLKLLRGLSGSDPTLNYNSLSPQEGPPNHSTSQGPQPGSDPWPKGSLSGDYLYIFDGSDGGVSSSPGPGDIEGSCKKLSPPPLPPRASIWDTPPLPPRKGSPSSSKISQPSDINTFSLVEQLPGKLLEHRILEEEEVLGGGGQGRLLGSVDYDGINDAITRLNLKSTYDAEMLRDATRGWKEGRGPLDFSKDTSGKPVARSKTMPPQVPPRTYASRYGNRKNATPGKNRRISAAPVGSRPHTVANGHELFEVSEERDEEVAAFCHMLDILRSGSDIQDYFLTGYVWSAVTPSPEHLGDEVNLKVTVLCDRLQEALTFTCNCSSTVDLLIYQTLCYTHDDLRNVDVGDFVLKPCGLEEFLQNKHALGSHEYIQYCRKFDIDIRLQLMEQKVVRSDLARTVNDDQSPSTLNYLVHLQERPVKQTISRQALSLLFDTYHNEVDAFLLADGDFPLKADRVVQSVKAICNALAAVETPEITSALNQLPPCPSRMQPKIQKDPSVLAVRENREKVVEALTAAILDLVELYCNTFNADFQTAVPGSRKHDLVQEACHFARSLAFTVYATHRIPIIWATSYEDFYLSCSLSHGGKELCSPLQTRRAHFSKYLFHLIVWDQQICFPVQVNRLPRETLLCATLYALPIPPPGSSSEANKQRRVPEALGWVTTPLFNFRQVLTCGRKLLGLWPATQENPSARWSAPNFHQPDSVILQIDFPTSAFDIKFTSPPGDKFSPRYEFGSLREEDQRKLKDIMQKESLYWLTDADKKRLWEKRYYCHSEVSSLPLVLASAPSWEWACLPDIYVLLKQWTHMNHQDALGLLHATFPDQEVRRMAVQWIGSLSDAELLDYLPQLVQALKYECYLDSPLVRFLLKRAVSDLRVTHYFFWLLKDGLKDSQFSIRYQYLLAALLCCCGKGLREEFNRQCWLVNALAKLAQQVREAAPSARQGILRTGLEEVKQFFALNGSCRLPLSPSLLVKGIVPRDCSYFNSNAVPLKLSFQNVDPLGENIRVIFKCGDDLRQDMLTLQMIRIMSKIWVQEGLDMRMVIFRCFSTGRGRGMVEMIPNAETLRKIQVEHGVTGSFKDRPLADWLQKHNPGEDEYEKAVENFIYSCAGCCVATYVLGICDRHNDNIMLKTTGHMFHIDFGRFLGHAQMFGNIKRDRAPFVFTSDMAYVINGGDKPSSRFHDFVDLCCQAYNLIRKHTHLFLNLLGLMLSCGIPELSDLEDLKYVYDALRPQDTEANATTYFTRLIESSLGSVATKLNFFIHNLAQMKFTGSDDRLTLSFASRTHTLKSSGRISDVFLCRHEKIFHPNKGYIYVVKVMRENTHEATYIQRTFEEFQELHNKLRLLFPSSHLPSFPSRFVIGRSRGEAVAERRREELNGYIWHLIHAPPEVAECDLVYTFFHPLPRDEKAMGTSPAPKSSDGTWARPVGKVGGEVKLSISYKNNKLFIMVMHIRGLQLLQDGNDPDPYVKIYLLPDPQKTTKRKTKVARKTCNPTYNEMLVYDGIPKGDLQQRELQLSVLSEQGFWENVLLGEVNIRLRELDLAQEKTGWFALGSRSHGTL
Method in brief: as §1

| SMILES | % change of MS signal compared to control sample |
| --- | --- |
| C=CC(=O)N1CCCCC(Nc2nccc(Nc3ncc(C(=O)Nc4c(C)cccc4C)s3)n2)C1 (stereo not drawn) [Example I-7] | 39.9% |

tested on: Wnk1, Wnk2; experiment: KINATIV assay; assay type: cell-based; conditions: 1 μM, 90 minutes, BCWM.1 cells
Method in brief: as §1

| SMILES | % change of MS signal compared to control sample |
| --- | --- |
| C=CC(=O)N1CCCCC(Nc2nccc(Nc3ncc(C(=O)Nc4c(C)cccc4C)s3)n2)C1 (stereo not drawn) [Example I-7] | −8.6% |

biological target: LRRK2 (Homo sapiens (Human), UniProt Q5S007); experiment: KINATIV assay; assay type: cell-based; conditions: 1 μM, 90 minutes, BCWM.1 cells
Method in brief: as §1

| SMILES | % change of MS signal compared to control sample |
| --- | --- |
| C=CC(=O)N1CCCCC(Nc2nccc(Nc3ncc(C(=O)Nc4c(C)cccc4C)s3)n2)C1 (stereo not drawn) [Example I-7] | −9.6% |

tested on: AurA, AurB, AurC; experiment: KINATIV assay; assay type: cell-based; conditions: 1 μM, 90 minutes, BCWM.1 cells
Method in brief: as §1

| SMILES | % change of MS signal compared to control sample |
| --- | --- |
| C=CC(=O)N1CCCCC(Nc2nccc(Nc3ncc(C(=O)Nc4c(C)cccc4C)s3)n2)C1 (stereo not drawn) [Example I-7] | 0.4% |

biological target: OSR1 (Homo sapiens (Human), UniProt O95747); experiment: KINATIV assay; assay type: cell-based; conditions: 1 μM, 90 minutes, BCWM.1 cells
Method in brief: as §1

| SMILES | % change of MS signal compared to control sample |
| --- | --- |
| C=CC(=O)N1CCCCC(Nc2nccc(Nc3ncc(C(=O)Nc4c(C)cccc4C)s3)n2)C1 (stereo not drawn) [Example I-7] | 22.0% |

tested on: MST4, YSK1; experiment: KINATIV assay; assay type: cell-based; conditions: 1 μM, 90 minutes, BCWM.1 cells
Method in brief: as §1

| SMILES | % change of MS signal compared to control sample |
| --- | --- |
| C=CC(=O)N1CCCCC(Nc2nccc(Nc3ncc(C(=O)Nc4c(C)cccc4C)s3)n2)C1 (stereo not drawn) [Example I-7] | 12.7% |

biological target: CaMK1d (Homo sapiens (Human), UniProt Q8IU85); experiment: KINATIV assay; assay type: cell-based; conditions: 1 μM, 90 minutes, BCWM.1 cells
Sequence (Q8IU85 whole entry): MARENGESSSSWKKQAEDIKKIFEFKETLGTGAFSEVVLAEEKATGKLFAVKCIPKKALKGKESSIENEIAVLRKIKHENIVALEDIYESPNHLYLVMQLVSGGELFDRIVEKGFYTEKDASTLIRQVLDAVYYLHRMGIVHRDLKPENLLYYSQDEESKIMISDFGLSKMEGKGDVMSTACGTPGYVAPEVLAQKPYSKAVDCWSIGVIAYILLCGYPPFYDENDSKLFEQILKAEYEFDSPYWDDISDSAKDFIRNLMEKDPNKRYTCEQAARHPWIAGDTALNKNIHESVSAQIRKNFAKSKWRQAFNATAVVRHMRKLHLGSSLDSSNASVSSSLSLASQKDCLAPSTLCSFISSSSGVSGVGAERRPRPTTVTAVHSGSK
Method in brief: as §1

| SMILES | % change of MS signal compared to control sample |
| --- | --- |
| C=CC(=O)N1CCCCC(Nc2nccc(Nc3ncc(C(=O)Nc4c(C)cccc4C)s3)n2)C1 (stereo not drawn) [Example I-7] | −19.1% and −16.0% |

tested on: IKKe, TBK1; experiment: KINATIV assay; assay type: cell-based; conditions: 1 μM, 90 minutes, BCWM.1 cells
Method in brief: as §1

| SMILES | % change of MS signal compared to control sample |
| --- | --- |
| C=CC(=O)N1CCCCC(Nc2nccc(Nc3ncc(C(=O)Nc4c(C)cccc4C)s3)n2)C1 (stereo not drawn) [Example I-7] | −10.7% |

biological target: MST4 (Homo sapiens (Human), UniProt Q9P289); experiment: KINATIV assay; assay type: cell-based; conditions: 1 μM, 90 minutes, BCWM.1 cells
Sequence (Q9P289 whole entry): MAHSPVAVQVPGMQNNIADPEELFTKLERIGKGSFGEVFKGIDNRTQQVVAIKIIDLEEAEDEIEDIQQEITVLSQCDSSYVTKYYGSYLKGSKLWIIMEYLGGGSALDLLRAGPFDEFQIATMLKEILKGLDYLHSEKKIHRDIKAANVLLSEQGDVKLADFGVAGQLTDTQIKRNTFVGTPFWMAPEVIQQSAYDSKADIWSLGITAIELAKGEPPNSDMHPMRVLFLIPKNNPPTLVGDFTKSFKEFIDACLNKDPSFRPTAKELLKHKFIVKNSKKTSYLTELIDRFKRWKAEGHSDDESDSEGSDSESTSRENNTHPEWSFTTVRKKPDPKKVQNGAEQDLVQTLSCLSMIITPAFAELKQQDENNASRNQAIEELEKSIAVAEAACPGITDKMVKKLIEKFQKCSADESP
Method in brief: as §1

| SMILES | % change of MS signal compared to control sample |
| --- | --- |
| C=CC(=O)N1CCCCC(Nc2nccc(Nc3ncc(C(=O)Nc4c(C)cccc4C)s3)n2)C1 (stereo not drawn) [Example I-7] | 11.6% |

tested on: Wnk1, Wnk2, Wnk4; experiment: KINATIV assay; assay type: cell-based; conditions: 1 μM, 90 minutes, BCWM.1 cells
Method in brief: as §1

| SMILES | % change of MS signal compared to control sample |
| --- | --- |
| C=CC(=O)N1CCCCC(Nc2nccc(Nc3ncc(C(=O)Nc4c(C)cccc4C)s3)n2)C1 (stereo not drawn) [Example I-7] | −6.6% |

biological target: FRK (Homo sapiens (Human), UniProt P42685); experiment: KINATIV assay; assay type: cell-based; conditions: 1 μM, 90 minutes, BCWM.1 cells
Method in brief: as §1

| SMILES | % change of MS signal compared to control sample |
| --- | --- |
| C=CC(=O)N1CCCCC(Nc2nccc(Nc3ncc(C(=O)Nc4c(C)cccc4C)s3)n2)C1 (stereo not drawn) [Example I-7] | 93.3% |

tested on: FYN, SRC, YES; experiment: KINATIV assay; assay type: cell-based; conditions: 1 μM, 90 minutes, BCWM.1 cells
Method in brief: as §1

| SMILES | % change of MS signal compared to control sample |
| --- | --- |
| C=CC(=O)N1CCCCC(Nc2nccc(Nc3ncc(C(=O)Nc4c(C)cccc4C)s3)n2)C1 (stereo not drawn) [Example I-7] | 98.4% |
